Experimental data as given in US20220380476A1, “Use of an anti-CCR7 antibody in combination therapies with a BTK inhibitor and/or BCL2- inhibitor for treating hematological malignancies” (Catapult Therapeutics B.V., priority 2019, published 2022).
Entries after “also recorded” stand apart in the source; their conditions may differ. Blank lines part the entries; values can stand above or below the molecule they belong to.

Key:
CD20 (human) = CD20 (human) (UniProt P11836)
Bcl-2 mRNA = conditions: cited from earlier work
Bcl-2 = Bcl-2 (Homo sapiens, UniProt P10415); conditions: cited from earlier work
Bcl-2, sequence (P10415 whole entry): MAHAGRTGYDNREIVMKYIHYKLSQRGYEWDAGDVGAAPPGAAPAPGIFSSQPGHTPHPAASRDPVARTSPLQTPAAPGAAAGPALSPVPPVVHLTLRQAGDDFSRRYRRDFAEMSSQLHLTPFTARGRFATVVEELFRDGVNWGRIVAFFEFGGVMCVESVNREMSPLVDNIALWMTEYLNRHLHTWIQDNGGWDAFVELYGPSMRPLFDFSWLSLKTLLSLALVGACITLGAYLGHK

MCL-1 = MCL-1 (Homo sapiens, UniProt Q07820); conditions: cited from earlier work
MCL-1, sequence (Q07820 whole entry, species assumed): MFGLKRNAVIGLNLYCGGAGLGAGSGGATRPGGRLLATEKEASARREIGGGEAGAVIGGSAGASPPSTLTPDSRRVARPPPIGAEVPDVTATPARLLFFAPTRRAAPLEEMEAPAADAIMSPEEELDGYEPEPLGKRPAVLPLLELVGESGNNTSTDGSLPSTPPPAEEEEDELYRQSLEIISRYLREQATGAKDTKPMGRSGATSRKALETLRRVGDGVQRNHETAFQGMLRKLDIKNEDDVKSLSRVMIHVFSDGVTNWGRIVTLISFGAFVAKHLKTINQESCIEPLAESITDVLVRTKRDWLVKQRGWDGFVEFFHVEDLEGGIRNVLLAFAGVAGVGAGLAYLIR

CCR7 = test: Flow cytometry of surface CCR7 expression in CLL cells from treated patients; assay type: in vivo, human; conditions: for change in surface CCR7 expression compared with naïve patients: CLL patients on treatment
Procedure: Systems). […] Data acquisition was performed on a BD FACSCanto™ 11 Flow Cytometer (BD Biosciences).

[1] = test system: patients with chronic lymphocytic leukemia (CLL); conditions: cited from earlier work
BCL-XL and BCL-W = conditions: cited from earlier work
[2] = test system: lymphoma and other blood cancers; conditions: cited from earlier work
[3] = test system: primary cells from patients with B-cell malignancies; conditions: in vitro; cited from earlier work
[4] = target: T1, human CC motif receptor 7 (CCR7) (human, UniProt P32248 25-378); test: cell-based or functional assay
T1 sequence (looked up): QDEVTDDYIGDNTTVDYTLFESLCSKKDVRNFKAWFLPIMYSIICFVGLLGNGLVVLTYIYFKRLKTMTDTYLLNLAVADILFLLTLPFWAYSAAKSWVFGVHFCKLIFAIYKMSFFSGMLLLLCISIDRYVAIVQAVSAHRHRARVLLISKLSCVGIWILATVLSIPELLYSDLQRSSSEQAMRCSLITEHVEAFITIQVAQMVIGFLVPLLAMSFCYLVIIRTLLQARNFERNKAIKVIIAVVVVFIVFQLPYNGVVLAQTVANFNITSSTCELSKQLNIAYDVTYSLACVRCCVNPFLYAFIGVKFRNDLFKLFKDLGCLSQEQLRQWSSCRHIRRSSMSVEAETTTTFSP

[5] = target: T1, human CC motif receptor 7 (CCR7); test: cell-based or functional assay; remark: listed apart in the source
[6] = target: T1, human CC motif receptor 7 (CCR7); test: cell-based or functional assay; remark: listed apart in the source
[7] = target: T1, human CC motif receptor 7 (CCR7); test: cell-based or functional assay; remark: listed apart in the source
[8] = target: T1, human CC motif receptor 7 (CCR7); test: cell-based or functional assay; remark: listed apart in the source
[9] = target: T1, human CC motif receptor 7 (CCR7); test: cell-based or functional assay; remark: listed apart in the source

CD20 (human), sequence (P11836 whole entry): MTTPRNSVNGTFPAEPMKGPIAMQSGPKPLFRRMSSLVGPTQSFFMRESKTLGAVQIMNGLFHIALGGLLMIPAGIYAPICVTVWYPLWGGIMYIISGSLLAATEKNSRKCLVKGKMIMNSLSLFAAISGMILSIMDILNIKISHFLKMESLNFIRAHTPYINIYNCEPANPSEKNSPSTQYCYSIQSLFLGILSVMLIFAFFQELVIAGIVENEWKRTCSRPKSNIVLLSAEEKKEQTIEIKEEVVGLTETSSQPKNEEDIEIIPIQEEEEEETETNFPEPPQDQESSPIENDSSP

EC50 (read off the curve); ADCC on CLL cells of a patient receiving venetoclax (CD20 (human)): 2 µg/mL
Molecule: RTX (antibody)

Molecule: oblimersen
cell proliferation (Bcl-2 mRNA): inhibited

Molecule: CC1(C)CCC(c2ccc(Cl)cc2)=C(CN2CCN(c3ccc(C(=O)NS(=O)(=O)c4ccc(N[C@H](CCN5CCOCC5)CSc5ccccc5)c(S(=O)(=O)C(F)(F)F)c4)cc3)CC2)C1 [navitoclax, 4-(4-{[2-(4-Chlorophenyl)-5,5-dimethyl-1-cyclohexen-1-yl]methyl}-1-piperazinyl)-N-[(4-{[(2R)-4-(4-morpholinyl)-1-(phenylsulfanyl)-2-butanyl]amino}-3-[(trifluoromethyl)sulfonyl]phenyl)sulfonyl]-benzamide]
affinity for Bcl-2, Bcl-xL and Bcl-w compared with previous Bcl-2 inhibitors (Bcl-2): higher affinity | activity against MCL-1 (MCL-1): not A1 or Mcl-1

Molecule: CC1(C)CCC(CN2CCN(c3ccc(C(=O)NS(=O)(=O)c4ccc(NCC5CCOCC5)c([N+](=O)[O-])c4)c(Oc4cnc5[nH]ccc5c4)c3)CC2)=C(c2ccc(Cl)cc2)C1 [venetoclax]
percentage of CCR7-expressing CLL cells (CCR7; CLL cells from patients on treatment): approximately 100% | change in surface CCR7 expression compared with naïve patients (CCR7): maintained in essentially all CLL cells | activity against MCL-1 (MCL-1): no activity | clinical response [1]: Good responses | thrombocytopenia [1]: not observed | binding affinity to BCL-XL and BCL-W (BCL-XL and BCL-W): significantly lower affinity | inhibition of Bcl-xL or Bcl-w (BCL-XL and BCL-W): not Bcl-xL or Bcl-w

Molecule: CN(C)CC[C@H](CSc1ccccc1)Nc1ccc(S(=O)(=O)NC(=O)c2ccc(N3CCN(Cc4ccccc4-c4ccc(Cl)cc4)CC3)cc2)cc1[N+](=O)[O-] [ABT-737, 4-[4-[(4′-chloro[1,T-biphenyl]-2-yl)methyl]-1-piperazinyl]A/-[[4-[[(1R)-3-(dimethylamino)-1-[(phenylthio)methyl]propyl]amino]-3-nitrophenyl]sulfonyl]benzamide]
survival ([2]; animal models): improves survival | tumor regression ([2]; animal models): causes tumor regression | efficacy in patient xenografts ([2]; preclinical studies utilizing patient xenografts): shows efficacy | affinity for Bcl-2, Bcl-xL and Bcl-w compared with previous Bcl-2 inhibitors (Bcl-2): higher affinity | activity against MCL-1 (MCL-1): not A1 or Mcl-1 | sensitivity of primary cells [3]: sensitive

Molecule: C=CC(=O)N1CCC([C@@H]2CCNc3c(C(N)=O)c(-c4ccc(Oc5ccccc5)cc4)nn32)CC1 [zanabrutinib]
change in surface CCR7 expression compared with naïve patients (CCR7): unchanged; also recorded: no changes

Molecule: CC#CC(=O)N1CCC[C@H]1c1nc(-c2ccc(C(=O)Nc3ccccn3)cc2)c2c(N)nccn12 [acalabrutinib]
change in surface CCR7 expression compared with naïve patients (CCR7): unchanged; also recorded: no changes

IC50 (read off the curve); CCL21-induced migration of CLL cells of a patient receiving venetoclax [4]: ~0.1 µg/mL | EC50 (read off the curve); ADCC on CLL cells of a patient receiving ibrutinib [5]: ~1 µg/mL | IC50 (read off the curve); CCL19-induced migration of CLL cells of an ibrutinib patient [6]: ~0.2 µg/mL | EC50 (read off the curve); ADCC on CLL cells of a patient with disease relapsed/refractory to ibrutinib [7]: ~1 µg/mL | EC50 (read off the curve); ADCC on CLL cells of a patient receiving zanabrutinib [8]: ~0.8 µg/mL | EC50 (read off the curve); ADCC on CLL cells of a patient receiving venetoclax [9]: ~0.2 µg/mL
B1: CAP-100 (antibody, human IgG1, V domains shown)
VH: EVQLLESGGGFVKPGGSLKLSCVVSGLTFRDFAMSWVRQTPEKRLVWVATISSGGFYTYYPDSVKGRFTISRDNVRNILYLQMSSLRSEDTAVYYCVRRAYRYDGTGDYSALDYWGTGTTVTVSS
VL: DIQMTQSPSSLSASVGDRVTITCRASQDIGPSLNWYQQKPGKAPKRLIYATSNLDSGVPSRFSGSGSGTDFTLTISSLQPEDFATYYCLQFASSPLTFGQGTKVEIK
